Test results reported in patent US20220378706A1, “PHARMACEUTICAL COMPOSITION COMPRISING PDE9 INHIBITOR” (Eisai R&D Management Co., Ltd., priority 2017, published 2022).
Values joined by “and” are separate entries in the source; they are usually repeats but may differ in a detail not shown here. Identical values can stand only once. Like-named read-outs stand apart in the source and are kept apart here.

Assay: Single dose clinical study: plasma Compound A pharmacokinetics
Format: in vivo, human
Details: for AUC(0-inf) / Cmax / Vd/F / half-life / Tmax / AUC(0-t): human, po; for AUC(0-inf): read-out: AUC(0-inf) GM; for Tmax: read-out: tmax Median; for tlag Median (Min, Max): Part B 100 mg cohort
Protocol: This was a single center, single dose, randomized, double blind, placebo controlled study in healthy subjects. It consisted of 4 parts: Parts A, B, C, and D. Each of the four study parts had 2 phases: Prerandomization Phase and Randomization Phase. The Prerandomization Phase lasted up to 30 days and consisted of a Screening Period and a Baseline Period, during which each subject's study eligibility was determined and baseline assessments were performed.
In Part A, there were 8 sequential cohorts of healthy adult subjects (18-50 years of age). Subjects were randomly assigned to Compound A or placebo in a ratio of 6:2, respectively. Subjects in the Compound A cohorts were treated with single ascending doses of 10, 25, 50, 100, 200, 400, 800, or 1200 mg.
In Part B, there were 4 cohorts of healthy adult subjects (18-50 years of age). There were 8 subjects in Cohort 1, with 6 subjects randomly assigned to receive single doses of Compound A (400 mg) and 2 subjects randomly assigned to receive placebo. There were 7 subjects in Cohort 2 and Cohort 3, each with 6 subjects randomly assigned to receive single doses of Compound A (100 and 200 mg, respectively) and 1 subject randomly assigned to receive placebo. The dose of 100 mg selected in Cohort 2 was based on preliminary analysis of Cohort 1 data; this dose was predicted from PK/PD modeling to achieve a sustained CSF cGMP increase from baseline of approximately 200% when administered to steady state, and thereby provided a potentially therapeutic dose for further evaluation in future studies. There were 7 subjects in Cohort 4, with 6 subjects randomly assigned to receive a single dose of Compound A (50 mg [n=3] or 75 mg [n=3]) and 1 subject randomly assigned to receive placebo. The doses for Cohorts 3 and 4 were selected based on PK/PD modeling of the data in Cohorts 1 and 2.
Subjects in Cohort 2 who had received Compound A 100 mg or placebo under fasted conditions (1st Treatment Period) also participated in an evaluation of food effect on the PK of Compound A (2nd Treatment Period). After a washout period of at least 13 days (or 5 half-lives of Compound A, whichever was longer), subjects were admitted to the clinic for baseline assessments (2nd Baseline Period) and then received a single dose of the same treatment (Compound A 100 mg or placebo) after consuming a high fat and high calorie meal over 30 minutes. Blood PK samples were collected at prespecified time points. Safety evaluations were also assessed. CSF was not collected for PD evaluation during the 2nd Treatment Period. A Follow Up Visit occurred on Day 10 of Treatment Period 2.
In Part C, there was 1 cohort of 8 healthy elderly subjects (65 to 85 years of age) randomly assigned to receive a single dose of Compound A 100 mg or placebo in a ratio of 6:2, respectively.
In Part D, 3 cohorts of healthy adult Japanese subjects were randomized in parallel. There were 7 subjects in each cohort and subjects were randomly assigned to receive single doses of Compound A (25, 100, or 400 mg) or placebo in a ratio of 6:1, respectively.
Blood samples for determination of plasma Compound A concentrations were collected from predose to 216 hours postdose. On Day 1, blood PK samples were collected at predose and postdose 0.5 (30 minutes), 1, 1.5, 2, 3, 4, 5, 6, 8, 12, and 18 hours. Thereafter, samples were collected on Day 2 (24 and 36 hours postdose), Day 3 (48 hours postdose), Day 4 (72 hours postdose), Day 5 (96 hours postdose), Day 6 (120 hours postdose), Day 7 (144 hours postdose), and Day 10 (216 hours postdose).
Blood samples for determination of plasma Compound A concentrations were collected from predose to 216 hours postdose. For all cohorts, blood PK samples were collected on Day 1 at predose and postdose at 0.5 (30 minutes), 1, 1.5, 2, 3, 4, 5, 6, 8, 10, 12, and 18 hours. […]

[1] = plasma, 400 mg, plasma, Non-Japanese Subjects (Parts A,B), single oral 400 mg
[2] = plasma, 400 mg, plasma, healthy adults (Parts A,B), single oral 400 mg, fasted
[3] = plasma, 800 mg, plasma, healthy adults (Parts A,B), single oral 800 mg, fasted
[4] = plasma, 1200 mg, plasma, healthy adults (Parts A,B), single oral 1200 mg, fasted
[5] = plasma, healthy adults (Parts A,B), single oral 10 mg, fasted
[6] = plasma, healthy adults (Parts A,B), single oral 25 mg, fasted
[7] = plasma, healthy adults (Parts A,B), single oral 50 mg, fasted
[8] = plasma, healthy adults (Parts A,B), single oral 75 mg, fasted
[9] = plasma, healthy adults (Parts A,B), single oral 100 mg, fasted
[10] = plasma, healthy adults (Parts A,B), single oral 200 mg, fasted
[11] = plasma, healthy adults (Parts A,B), single oral 400 mg, fasted
[12] = plasma, healthy adults (Parts A,B), single oral 800 mg, fasted
[13] = plasma, healthy adults (Parts A,B), single oral 1200 mg, fasted

With COc1ncc(C)c(-c2ccc3c(c2)[nH]c(=O)c2cnn([C@H]4CCOC4)c23)c1C [Compound A, (S)-7-(2-methoxy-3,5-dimethylpyridin-4-yl)-1-(tetrahydrofuran-3-yl)-1H-pyrazolo[4,3-c]quin olin-4(5H)-one] as the molecule, how does the AUC(0-inf) [1] read?
The AUC(0-inf) was 35800 ng·h/mL.

And the Cmax (plasma, 400 mg, plasma, Non-Japanese Subjects (Parts A,B), single oral 400 mg, read-out: Cmax GM (% CV))?
The Cmax was 827 ng/mL.

And the Vd/F (plasma, 400 mg, plasma, Non-Japanese Subjects (Parts A,B), single oral 400 mg, read-out: Vz/F GM (% CV))?
The Vd/F was 511 L.

What about the half-life (plasma, 400 mg, plasma, Non-Japanese Subjects (Parts A,B), single oral 400 mg, read-out: t1/2 Mean (SD) (converted)) of the same molecule?
Its half-life is 34.5 h.

What about the Tmax [1] of the same molecule?
The Tmax was 3 h.

What about the AUC(0-t) (plasma, 400 mg, plasma, healthy adults (Parts A,B), single oral 400 mg, fasted, read-out: AUC(0-24 h) GM) of the same molecule?
The AUC(0-t) was 12500 ng·h/mL.

What about the AUC(0-t) (plasma, 400 mg, plasma, healthy adults (Parts A,B), single oral 400 mg, fasted, read-out: AUC(0-30 h) GM) of the same molecule?
The AUC(0-t) was 15200 ng·h/mL.

And the AUC(0-t) (plasma, 400 mg, plasma, healthy adults (Parts A,B), single oral 400 mg, fasted, read-out: AUC(0-72 h) GM)?
The AUC(0-t) was 27000 ng·h/mL.

What about the AUC(0-inf) [2] of the same molecule?
The AUC(0-inf) was 36300 ng·h/mL.

What about the AUC(0-t) (plasma, 400 mg, plasma, healthy adults (Parts A,B), single oral 400 mg, fasted, read-out: AUC(0-t) GM) of the same molecule?
Its AUC(0-t) is 35500 ng·h/mL.

And the Cmax (plasma, 400 mg, plasma, healthy adults (Parts A,B), single oral 400 mg, fasted, read-out: Cmax GM)?
Its Cmax is 880 ng/mL.

What about the Vd/F (plasma, 400 mg, plasma, healthy adults (Parts A,B), single oral 400 mg, fasted, read-out: Vz/F GM) of the same molecule?
The Vd/F was 493 L.

And the half-life (plasma, 400 mg, plasma, healthy adults (Parts A,B), single oral 400 mg, fasted, read-out: t1/2 Mean (converted))?
The half-life was 33.2 h.

And the Tmax [2]?
The Tmax was 2.5 h.

What about the AUC(0-t) (plasma, 800 mg, plasma, healthy adults (Parts A,B), single oral 800 mg, fasted, read-out: AUC(0-24 h) GM) of the same molecule?
The AUC(0-t) was 29200 ng·h/mL.

What about the AUC(0-t) (plasma, 800 mg, plasma, healthy adults (Parts A,B), single oral 800 mg, fasted, read-out: AUC(0-30 h) GM) of the same molecule?
Its AUC(0-t) is 34500 ng·h/mL.

And the AUC(0-t) (plasma, 800 mg, plasma, healthy adults (Parts A,B), single oral 800 mg, fasted, read-out: AUC(0-72 h) GM)?
Its AUC(0-t) is 54700 ng·h/mL.

What about the AUC(0-inf) [3] of the same molecule?
The AUC(0-inf) was 65000 ng·h/mL.

And the AUC(0-t) (plasma, 800 mg, plasma, healthy adults (Parts A,B), single oral 800 mg, fasted, read-out: AUC(0-t) GM)?
The AUC(0-t) was 64300 ng·h/mL.

What about the Cmax (plasma, 800 mg, plasma, healthy adults (Parts A,B), single oral 800 mg, fasted, read-out: Cmax GM) of the same molecule?
The Cmax was 2570 ng/mL.

What about the Vd/F (plasma, 800 mg, plasma, healthy adults (Parts A,B), single oral 800 mg, fasted, read-out: Vz/F GM) of the same molecule?
Its Vd/F is 438 L.

And the half-life (plasma, 800 mg, plasma, healthy adults (Parts A,B), single oral 800 mg, fasted, read-out: t1/2 Mean (converted))?
The half-life was 25.2 h.

What about the Tmax [3] of the same molecule?
Its Tmax is 3.55 h.

What about the AUC(0-t) (plasma, 1200 mg, plasma, healthy adults (Parts A,B), single oral 1200 mg, fasted, read-out: AUC(0-24 h) GM) of the same molecule?
Its AUC(0-t) is 28500 ng·h/mL.

What about the AUC(0-t) (plasma, 1200 mg, plasma, healthy adults (Parts A,B), single oral 1200 mg, fasted, read-out: AUC(0-30 h) GM) of the same molecule?
Its AUC(0-t) is 34800 ng·h/mL.

And the AUC(0-t) (plasma, 1200 mg, plasma, healthy adults (Parts A,B), single oral 1200 mg, fasted, read-out: AUC(0-72 h) GM)?
Its AUC(0-t) is 60600 ng·h/mL.

What about the AUC(0-inf) [4] of the same molecule?
The AUC(0-inf) was 79700 ng·h/mL.

What about the AUC(0-t) (plasma, 1200 mg, plasma, healthy adults (Parts A,B), single oral 1200 mg, fasted, read-out: AUC(0-t) GM) of the same molecule?
The AUC(0-t) was 78400 ng·h/mL.

What about the Cmax (plasma, 1200 mg, plasma, healthy adults (Parts A,B), single oral 1200 mg, fasted, read-out: Cmax GM) of the same molecule?
The Cmax was 1780 ng/mL.

What about the Vd/F (plasma, 1200 mg, plasma, healthy adults (Parts A,B), single oral 1200 mg, fasted, read-out: Vz/F GM) of the same molecule?
Its Vd/F is 666 L.

And the half-life (plasma, 1200 mg, plasma, healthy adults (Parts A,B), single oral 1200 mg, fasted, read-out: t1/2 Mean (converted))?
Its half-life is 31.9 h.

What about the Tmax [4] of the same molecule?
The Tmax was 3.02 h.

And the “tlag Median (Min, Max)” value (plasma, single oral 100 mg, Fasted)?
Its value is 0 (0.00, 0.00) h.

And the “tlag Median (Min, Max)” value (plasma, single oral 100 mg, Fed (high-fat meal))?
Its value is 0.49 (0.00, 0.88) h.

What about the “CL/F GM” value [5] of the same molecule?
The value was 5.41 L/h.

What about the “tlag Median” value [5] of the same molecule?
Its value is 0.50 h.

And the “CL/F GM” value [6]?
The value was 5.76 L/h.

And the “tlag Median” value [6]?
Its value is 0.00 h.

And the “CL/F GM” value [7]?
The value was 6.33 L/h.

And the “tlag Median” value [7]?
The value was 0.00 h.

What about the “CL/F GM” value [8] of the same molecule?
Its value is 7.57 L/h.

And the “tlag Median” value [8]?
The value was 0.00 h.

What about the “AUC(0-inf) GM” value [9] of the same molecule?
Its value is 15000 (20.0) h × ng/mL.

What about the “CL/F GM” value [9] of the same molecule?
Its value is 6.66 L/h and 6.66 (20.1) L/h.

And the “Cmax GM” value [9]?
The value was 373 (19.8) ng/mL.

And the “t1/2 Mean” value [9]?
The value was 28.6 (6.73) h.

And the “tlag Median” value [9]?
The value was 0.00 h.

And the “CL/F GM” value [10]?
Its value is 8.93 L/h.

And the “tlag Median” value [10]?
Its value is 0.00 h.

What about the “CL/F GM” value [11] of the same molecule?
Its value is 11.0 L/h.

And the “tlag Median” value [11]?
Its value is 0.00 h.

And the “CL/F GM” value [12]?
Its value is 12.3 L/h.

And the “tlag Median” value [12]?
Its value is 0.00 h.

And the “CL/F GM” value [13]?
Its value is 15.1 L/h.

What about the “tlag Median” value [13] of the same molecule?
The value was 0.00 h.

What about the “time to quantifiable plasma concentrations postdose (most subjects)” value (single doses of 10 to 1200 mg) of the same molecule?
The value was ≤ 0.5 h.
